Source: paper PMC3169616, “Unique Residues Involved in Activation of the Multitasking Protease/Chaperone HtrA from Chlamydia trachomatis” (PLoS ONE, 2011)
“Also recorded” adds a separate entry of the source.

How the values were obtained:
CtHtrA [1] = target: T1, CtHtrA (Chlamydia trachomatis serovar D, UniProt P18584); assay: Activation of CtHtrA cleavage of Bcas1 substrate by added activator; type: biochemical; settings: substrate Bcas1 (MCA-ENLHLPLPIIF-DNP), fluorimetric, 37°C
T1 construct: His-tag; made in house; host or cells: E. coli BL21 (DE3), plasmid pETHtrA
T1 sequence (P18584 17-497): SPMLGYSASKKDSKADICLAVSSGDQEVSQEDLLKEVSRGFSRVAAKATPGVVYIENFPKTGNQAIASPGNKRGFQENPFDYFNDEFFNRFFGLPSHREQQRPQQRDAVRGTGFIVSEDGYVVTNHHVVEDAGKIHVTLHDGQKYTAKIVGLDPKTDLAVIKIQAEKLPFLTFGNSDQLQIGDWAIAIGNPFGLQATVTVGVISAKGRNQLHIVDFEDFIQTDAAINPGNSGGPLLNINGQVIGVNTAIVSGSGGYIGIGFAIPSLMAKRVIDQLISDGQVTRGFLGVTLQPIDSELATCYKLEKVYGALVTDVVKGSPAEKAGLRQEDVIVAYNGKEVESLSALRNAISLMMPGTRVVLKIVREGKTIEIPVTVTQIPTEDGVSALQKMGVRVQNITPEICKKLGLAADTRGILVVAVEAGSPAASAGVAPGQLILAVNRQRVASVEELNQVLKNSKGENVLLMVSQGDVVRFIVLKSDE
Procedure: To determine if the addition of a second peptide to the protease assays could activate or increase CtHtrA proteolysis, two activator peptides were tested in the CtHtrA cleavage of the model ß-casein peptide substrate Bcas1. The first was based on the ß-casein C-terminal sequence (Act1: NH2-VLGPVRGPFPIIV-OH) and the second on insulin b chain C-terminal sequence (Act2: NH2-CGELGFFYTP-OH).
Finally, in order to determine if the 24-mer (highest amount with MOMP protein, or Act1), or 12-mer, or both, corresponds to enhanced protease activity, the incubations of CtHtrA and these potential in vivo activators were used for protease assays with the Bcas1 substrate (Fig. 6). […] The presence of the majority of CtHtrA as higher order oligomers correlated with an increased rate of proteolysis for CtHtrA, particularly when these oligomers were predominately 24-mers.
The purified recombinant protein was examined by Coomassie stained polyacrylamide gels and activity was checked using ß-casein cleavage assays prior to use in peptide assays. Briefly, this involved incubating 2 µg of the protease with 10 µg of ß-casein in 50 mM Tris pH 7.0, 20 mM MgCl2 for 2 h prior to examining the assays by SDS PAGE (ß-casein and protease only controls were always conducted). Protease assays using peptides were conducted using custom synthesised peptides (Mimotopes). […] Protease assays using pNA labelled peptides were conducted using the xMARK Microplate spectrophotometer (Bio-Rad) at 405 nm, incubated at 37°C, with a reading taken every 10 s for 30 min. The maximum slope over a minimum of 8 readings was used for the data analysis. […] The assays were excited at 340 nm and emission was detected at 405 nm with a gain of 1000, the assays were monitored every 20 s or at the minimum cycle time for up to 40 min. […] The assay results shown for the fluorescent compounds have been normalised for the amount of fluorescent emission detected using a standard curve of known concentrations of the MCA fluorophore under the identical assay conditions. […]

CtHtrA [2] = target: T1, CtHtrA; assay: Oligomerisation assay (glutaraldehyde crosslinking, 3-8% TrisAcetate gel, silver stain); type: biochemical; settings: wild type CtHtrA 2 mg/ml, 100 mM sodium phosphate pH 7.0, 10 mins at 37°C, 0.5% glutaraldehyde fixation
Procedure: (§1) E. coli DegP proteolysis activation involves the transition from resting hexamers via trimers to 12- and 24-mers following the peptide activator binding to the PDZ1 binding cleft. CtHtrA oligomer formation induced by Act1 addition was examined after incubation for 10 mins at 37°C. The wild type and mutant proteins were incubated with either the ß-casein based activator peptide (Act1), or with whole insulin (intact), or in the absence of any activator as a control. CtHtrA incubated in the absence of any added activators formed 24-mers with some hexamers detected after 10 mins (Fig. 5). […] The R299W mutant was present as hexamer and 24-mer in the control with no activator. […] The L302N mutant was not detected in any higher oligomeric form under any conditions. L302N was detected as faint hexamer and trimer but mostly monomer under all tested conditions (not visible on these gels). […] I365D was detected as hexamers, trimers, 12-mers, and some 24-mers when incubated in the absence of activators.
(§2) The oligomerisation of HtrA into 12- and 24-mer complexes has been independently detected for E. coli HtrA (DegP). The oligomerisation of HtrA (DegP) was triggered by peptides from digested ß-casein [18]. Assays to detect whether CtHtrA and site directed mutant protein oligomerisation was triggered by substrates were conducted essentially as previously described (Merdanovic et al., 2010). Briefly, 2 mg/ml protein solutions in 100 mM sodium phosphate buffer pH 7.0 were pre-incubated to the required temperature. The ligands (activator peptide, or insulin) were added and at 10 min, and the proteins were fixed using 0.5% glutaraldehyde. Samples were fixed at room temperature for 2 min prior to addition of 1 M Tris pH 7.5 to remove any excess glutaraldehyde. Samples were incubated for another 10 min at room temperature prior to addition of SDS PAGE reducing loading buffer. The protein samples were examined on 3–8% TrisAcetate gradient polyacrylamide gels (Novex, Invitrogen) by silver staining. The proteins used in this study were not initially denatured by treatment with urea as, the refolding, formation of oligomers, and protease activity was never successfully detected with denatured CtHtrA. All assays were conducted in duplicate on three separate occasions with at least two gels of each experiment completed for each assay condition.

CtHtrA I365D = assay: Oligomerisation assay, mutated protein; type: biochemical, Chlamydia trachomatis; settings: I365D mutant, 10 mins incubation
Procedure: as §1, §2

CtHtrA R299W = assay: Oligomerisation assay, mutated protein; type: biochemical, Chlamydia trachomatis; settings: R299W mutant, 10 mins incubation
Procedure: as §1, §2

CtHtrA R373A = assay: Oligomerisation assay, mutated protein; type: biochemical, Chlamydia trachomatis; settings: R373A mutant, 10 mins incubation
Procedure: as §1, §2

Substance: H-VLGPVRGPFPIIV-OH [Act1]
- effect of activator on rate of CtHtrA proteolysis of Bcas1 (CtHtrA [1]): greater ability of the two activators to increase the proteolysis rate; also recorded: increased proteolysis rate
- CtHtrA oligomer formation induced by activator (CtHtrA [2]): induced the protein to form 24-mers
- oligomer formation induced by activator (CtHtrA I365D): no 12-mers, but only hexamers and 24-mers were detected
- oligomer formation induced by activator (CtHtrA R299W): Low levels of 24-mer were formed
- oligomer formation induced by activator (CtHtrA R373A): resulted in 24-mer formation
